System: Caenorhabditis elegans
Assay: C. elegans fast killing assay on PGS/PG agar
Format: in vivo
Description: The rate of killing observed under these conditions is defined as “slow killing.” Briefly, under the slow killing conditions, 5 μl of an overnight liquid culture of PA14 is spread on the center of an NGM (or M9) agar plate and grown for 37° C. for 24 hours. The plates are then allowed to cool to room temperature for several hours. Worms at the fourth larval stage (L4) are added to the agar but not in contact with the bacterial lawn. The worms typically move toward the bacterial lawn and commence feeding. In contrast, when PA14 worms were grown on peptone-glucose-sorbitol (PGS), a richer medium of higher osmolarity, a different result was obtained. When L4 worms were placed on PGS plates, the worms became sluggish, then paralyzed, and then died within 4–24 hours (FIG. 5). Some worms died even before coming into direct contact with the bacterial lawn. This more rapid killing on PGS agar is termed “fast killing.”
Nematode Killing Assay. Worm killing by P. aeruginosa was performed in a plate assay. For the fast killing assay, 5 μl of an overnight King's B (King et al. (1954) J. Lab. Clin. Med. 44:301–307) culture of PA14, or the test strains, were spread on 3.5 cm diameter plates containing PGS or PG agar. A bacterial lawn of about 2 cm diameter grew in the center of plate after incubation at 37° C. for 24 hours. After cooling to room temperature (ranges from 4–12 hours after removal from 37° C. incubator), 40 worms were added to the agar. Unless otherwise stated all worm strains were cultured at 20° C., and the fourth larval (L4) stage was used. The experiments were performed in 3–4 replicates per strain. Bristol N2 was used as the wild-type strain and E. coli OP50 for the negative control. Plates seeded with worms were incubated in 25° C. Worm mortality was scored at various time points. A worm was considered dead when no movement was detectable when touched lightly with an eye-lash pick. Slow killing assays were performed generally as described above.

## [Cl][Fe]([Cl])[Cl] [FeCl3]
100 μM added to PGS
  effect on PA14 fast killing of C. elegans (in words): significantly reduced killing

## OC[C@@H](O)[C@@H](O)[C@H](O)[C@@H](O)CO [sorbitol]
0.15 M added to Peptone-Glucose medium, compared to 0.1 M or no sorbitol
  effect on PA14 fast killing of C. elegans (in words): significantly increased the rate of killing

## EDDA
400 μM added to PGS
  effect on PA14 fast killing of C. elegans (in words): did not significantly affect fast killing

From patent US7166270B1, “Methods of screening compounds useful for prevention of infection or pathogenicity” (The Netherlands Cancer Institute, priority 1995, dated 2007)
